Reference: paper PMC6400584, “Activation mechanism of ATP-sensitive K^+ channels explored with real-time nucleotide binding” (eLife, 2019)

Key:
SUR1/Kir6.2-G334D [1] = target: T1, SUR1/Kir6.2-G334D (Homo sapiens, UniProt Q09428); design: method as in Proks et al., 2010; conditions: ref Proks et al., 2010; read-out: EC50 for activation of currents; cited from earlier work
T1 construct: expressed in transfected cells; host or cells: HEK-293T

[2] = target: SUR1-Y1353*/Kir6.2 (NBS2 of SUR1) (Homo sapiens, UniProt Q09428, Y1353X); experiment: FRET binding of TNP-nucleotides to ANAP-labeled KATP in unroofed membrane fragments; conditions: 10 mM unlabeled nucleotide
Procedure: Unroofed membranes were prepared using a modification of a protocol from the Heuser laboratory ([Heuser, 2000]; [Usukura et al., 2012]; [Zagotta et al., 2016]). Briefly, a coverslip containing adherent cells was removed from the cell culture medium and a small piece (0.5–1 cm) was broken off using jewelers forceps (#5) and washed in phosphate buffered saline (PBS, Thermo Fisher Scientific) diluted 1:3 in deionized water. Cells were exposed 3 × 10 s to a solution of 0.01% poly-L-lysine (Sigma) with intervening washes in diluted PBS to adhere them more firmly to the coverslips. The coverslip fragment was then placed in a 30 mm culture dish filled with 2–3 mL of 1/3X PBS and sonicated very briefly (~100 ms) using a probe sonicator (Vibra-cell; Newtown, CT), leaving behind adherent plasma membrane and sometimes additional cellular material. The unroofed fragments in our experiments were sometimes visible under bright-field illumination, a potential result of our modified ‘unroofing’ procedure. Morphologically, such cell fragments resemble the ‘partially unroofed’ cells identified by Usukura et al. ([Usukura et al., 2012]) Cells cultured on poly-D-lysine coated FluoroDishes were unroofed in diluted PBS with no additional poly-L-lysine treatment. This procedure yielded a higher percentage of completely unroofed plasma membranes (i.e. nearly invisible with brightfield illumination).
Unroofed membrane fragments were imaged directly on FluoroDishes (FD35-PDL-100, World Precision Instruments) or on broken coverslips placed in a FluoroDish (FD3510, World Precision instruments) using a Nikon TE2000-U microscope equipped with a 40x (S Fluor, 1.3 NA; Nikon, Kingston Upon Thames, UK) or 100x (Apo TIRF, 1.49 NA, Nikon) oil-immersion objective and low-fluorescence immersion oil (MOIL-30, Olympus; Southend-on-Sea, UK) or a 60x water immersion objective (Plan Apo VC, 1.20 NA, Nikon). ANAP was excited using a ThorLabs LED source (LED4D067) at 385 nm connected to the microscope using a liquid light guide in series with a 390/18 nm band-pass filter (MF390-18, ThorLabs; Newton, NJ) and MD416 dichroic (ThorLabs). For imaging, emitted light was filtered through a 479/40 nm band-pass filter (MF479-40, ThorLabs). GFP-tagged constructs were imaged using a similar setup with excitation at 490 nm, a 480/40 band-pass excitation filter (Chroma; Bellows Falls, VT), a DM505 dichroic mirror (Chroma), and 510 nm long-pass emission filter (Chroma). All images were acquired using a PIXIS 400B CCD camera (Princeton Instruments; Trenton, NJ). For spectroscopy, ANAP was excited as above, but emitted light was passed through a 400 nm long-pass filter (FEL0400, ThorLabs) and directed through the slit of an Isoplane 160 spectrometer (300 g/mm grating; Princeton Instruments) in series with the camera. The acquired images retained spatial information in the y-dimension, with the x-dimension replaced by wavelength (Figure 1—figure supplement 1a). Exposure times were typically 100 ms for brightfield images, 1–10 s for steady-state spectra and 1–5 s for time-course experiments.
To prevent accumulation of fluorescent nucleotides in the bath, FluoroDishes were perfused with either (in mM) 140 KCl, 20 NaCl, 10 MgCl2, 10 HEPES pH 7.2 with NaOH or 140 KCl, 20 NaCl, 1 EDTA, 10 HEPES pH 7.2 with NaOH using a peristaltic pump (Ismatec; Wertheim, Germany). Unroofed membranes were directly perfused with nucleotides using an 8-channel µFlow perfusion system (ALA Scientific Instruments; Farmingdale, NY). Solution change with the µFlow was rapid (τ = 0.73 s±0.02 s, n=5) as measured from single exponential fits to wash-out of 50 µM tetramethylrhodamine-5-maleimide (TMRM) after switching to a solution with no TMRM. TMRM was excited with a 565 nm LED with a D540/25X band-pass filter (Chroma) and DM565 dichroic mirror (Chroma). Emitted light was collected through a D605/55M band-pass filter (Chroma). […]

3xFLAG_SUR1/Kir6.2 = target: T2, 3xFLAG_SUR1/Kir6.2 (Homo sapiens, UniProt Q09428+Q14654, INS1042[…]); experiment: Current response to 100 μM nucleotide relative to nucleotide-free solution, inside-out patches; assay type: biochemical
T2 construct: expressed in transfected cells; host or cells: HEK-293T
Procedure: (§1) Currents were recorded from inside-out membrane patches excised from transfected HEK-293T cells. Pipettes were pulled to a resistance of 1–5 MΩ and filled with an extracellular solution containing (in mM) 140 KCl, 1.2 MgCl2, 2.6 CaCl2, and 10 HEPES, pH 7.4 or 140 KCl, 1 EGTA, 10 HEPES, pH 7.3. The intracellular (bath) solutions contained either (in mM) 107 KCl, 2 MgCl2, 1 CaCl2, 10 EGTA, and 10 HEPES, pH 7.2 for experiments showing nucleotide-dependent activation or 140 KCl, 1 EDTA, 1 EGTA, 10 HEPES pH 7.3 for experiments showing nucleotide-dependent inhibition. Nucleotides were added as indicated. Patches were perfused with an 8-channel µFlow perfusion system. Data were acquired at a holding potential of −60 mV using an Axopatch 200B amplifier and Digidata 1322A digitizer with pClamp 9.0 software (Molecular Devices). Currents were digitized at 10 kHz and low-pass filtered at 1 kHz. KATP channels run down in excised patches (reviewed by Proks et al.) ([Proks et al., 2016]). For inhibitory concentration-response relationships, rundown was corrected by alternating test nucleotide solutions with nucleotide-free (control) solutions and expressing the test currents as a fraction of the average of the control currents before and after the test solution. […]

SUR1-Y1353*/Kir6.2-G334D = experiment: Currents in inside-out patches; assay type: biochemical, Homo sapiens; conditions: co-expressed with pANAP and pERF1-E55D
Procedure: as §1

[3] = system: SUR1/Kir6.2-G334D with K1384A (K2A) in NBS2; design: method as in Proks et al., 2014; conditions: ref Proks et al., 2014; cited from earlier work
SUR1/Kir6.2-G334D [4] = target: T1, SUR1/Kir6.2-G334D; experiment: Current activation in inside-out patches; assay type: biochemical
Procedure: as §1

SUR1-T1397*/Kir6.2-G334D = system: T3, SUR1-T1397*/Kir6.2-G334D; experiment: Current activation in inside-out patches; assay type: biochemical, Homo sapiens
T3 construct: confirmed that >95% of SUR1-T1397* was full length; expressed in transfected cells; host or cells: HEK-293T
Procedure: as §1

T1 sequence (Q09428 whole entry, stated change not applied): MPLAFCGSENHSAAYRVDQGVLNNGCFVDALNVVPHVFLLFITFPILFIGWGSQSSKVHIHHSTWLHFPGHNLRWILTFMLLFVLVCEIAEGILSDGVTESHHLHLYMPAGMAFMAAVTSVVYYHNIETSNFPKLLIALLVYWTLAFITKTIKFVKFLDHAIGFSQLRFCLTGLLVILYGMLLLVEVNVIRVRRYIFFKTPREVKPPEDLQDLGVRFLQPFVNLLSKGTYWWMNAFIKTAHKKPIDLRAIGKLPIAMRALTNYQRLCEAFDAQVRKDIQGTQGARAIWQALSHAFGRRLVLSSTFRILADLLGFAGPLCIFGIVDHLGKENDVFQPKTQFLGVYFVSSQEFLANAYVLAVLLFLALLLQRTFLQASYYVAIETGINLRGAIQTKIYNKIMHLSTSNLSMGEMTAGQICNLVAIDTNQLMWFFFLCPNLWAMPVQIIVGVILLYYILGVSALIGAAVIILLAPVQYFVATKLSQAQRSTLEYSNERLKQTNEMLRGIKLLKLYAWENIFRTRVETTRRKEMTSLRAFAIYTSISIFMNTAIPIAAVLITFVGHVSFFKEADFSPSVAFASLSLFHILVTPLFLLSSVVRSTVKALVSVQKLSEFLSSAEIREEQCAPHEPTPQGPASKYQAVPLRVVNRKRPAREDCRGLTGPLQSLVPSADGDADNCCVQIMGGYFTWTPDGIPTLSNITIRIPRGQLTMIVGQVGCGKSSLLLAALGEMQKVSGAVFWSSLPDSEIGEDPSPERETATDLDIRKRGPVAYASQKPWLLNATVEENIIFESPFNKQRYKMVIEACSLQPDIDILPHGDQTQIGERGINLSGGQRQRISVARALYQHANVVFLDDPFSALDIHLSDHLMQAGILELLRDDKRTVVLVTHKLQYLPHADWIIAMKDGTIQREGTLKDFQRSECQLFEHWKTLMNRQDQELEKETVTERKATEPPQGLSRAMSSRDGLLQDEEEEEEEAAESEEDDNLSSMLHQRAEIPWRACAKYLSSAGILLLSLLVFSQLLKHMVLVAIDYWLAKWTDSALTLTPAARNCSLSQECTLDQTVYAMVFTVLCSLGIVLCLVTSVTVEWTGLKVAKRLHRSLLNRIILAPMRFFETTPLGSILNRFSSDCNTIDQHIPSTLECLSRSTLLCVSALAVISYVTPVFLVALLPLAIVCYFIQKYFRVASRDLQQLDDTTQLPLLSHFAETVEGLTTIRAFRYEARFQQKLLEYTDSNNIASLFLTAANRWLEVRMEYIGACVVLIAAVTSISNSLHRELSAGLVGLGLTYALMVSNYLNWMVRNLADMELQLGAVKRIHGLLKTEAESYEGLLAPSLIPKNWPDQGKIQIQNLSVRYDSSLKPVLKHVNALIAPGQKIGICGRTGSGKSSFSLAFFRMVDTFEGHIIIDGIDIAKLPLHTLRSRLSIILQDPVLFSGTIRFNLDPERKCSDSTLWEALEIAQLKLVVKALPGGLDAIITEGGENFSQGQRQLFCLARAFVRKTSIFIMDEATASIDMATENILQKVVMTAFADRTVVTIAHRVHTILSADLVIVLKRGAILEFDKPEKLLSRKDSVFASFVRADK
T1 sequence (Q14654 whole entry G334D partner): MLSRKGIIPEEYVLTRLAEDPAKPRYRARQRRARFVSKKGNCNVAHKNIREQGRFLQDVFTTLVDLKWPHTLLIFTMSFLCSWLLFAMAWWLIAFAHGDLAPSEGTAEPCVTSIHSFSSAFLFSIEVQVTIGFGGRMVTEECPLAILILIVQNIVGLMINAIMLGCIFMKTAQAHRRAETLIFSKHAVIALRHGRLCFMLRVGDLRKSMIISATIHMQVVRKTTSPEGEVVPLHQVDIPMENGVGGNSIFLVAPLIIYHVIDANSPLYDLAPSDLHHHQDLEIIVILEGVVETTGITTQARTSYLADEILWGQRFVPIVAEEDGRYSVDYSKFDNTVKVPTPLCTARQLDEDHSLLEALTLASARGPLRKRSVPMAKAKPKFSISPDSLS
T2 sequence (Q09428 with tags, fused parts or gaps INS1042[withheld]): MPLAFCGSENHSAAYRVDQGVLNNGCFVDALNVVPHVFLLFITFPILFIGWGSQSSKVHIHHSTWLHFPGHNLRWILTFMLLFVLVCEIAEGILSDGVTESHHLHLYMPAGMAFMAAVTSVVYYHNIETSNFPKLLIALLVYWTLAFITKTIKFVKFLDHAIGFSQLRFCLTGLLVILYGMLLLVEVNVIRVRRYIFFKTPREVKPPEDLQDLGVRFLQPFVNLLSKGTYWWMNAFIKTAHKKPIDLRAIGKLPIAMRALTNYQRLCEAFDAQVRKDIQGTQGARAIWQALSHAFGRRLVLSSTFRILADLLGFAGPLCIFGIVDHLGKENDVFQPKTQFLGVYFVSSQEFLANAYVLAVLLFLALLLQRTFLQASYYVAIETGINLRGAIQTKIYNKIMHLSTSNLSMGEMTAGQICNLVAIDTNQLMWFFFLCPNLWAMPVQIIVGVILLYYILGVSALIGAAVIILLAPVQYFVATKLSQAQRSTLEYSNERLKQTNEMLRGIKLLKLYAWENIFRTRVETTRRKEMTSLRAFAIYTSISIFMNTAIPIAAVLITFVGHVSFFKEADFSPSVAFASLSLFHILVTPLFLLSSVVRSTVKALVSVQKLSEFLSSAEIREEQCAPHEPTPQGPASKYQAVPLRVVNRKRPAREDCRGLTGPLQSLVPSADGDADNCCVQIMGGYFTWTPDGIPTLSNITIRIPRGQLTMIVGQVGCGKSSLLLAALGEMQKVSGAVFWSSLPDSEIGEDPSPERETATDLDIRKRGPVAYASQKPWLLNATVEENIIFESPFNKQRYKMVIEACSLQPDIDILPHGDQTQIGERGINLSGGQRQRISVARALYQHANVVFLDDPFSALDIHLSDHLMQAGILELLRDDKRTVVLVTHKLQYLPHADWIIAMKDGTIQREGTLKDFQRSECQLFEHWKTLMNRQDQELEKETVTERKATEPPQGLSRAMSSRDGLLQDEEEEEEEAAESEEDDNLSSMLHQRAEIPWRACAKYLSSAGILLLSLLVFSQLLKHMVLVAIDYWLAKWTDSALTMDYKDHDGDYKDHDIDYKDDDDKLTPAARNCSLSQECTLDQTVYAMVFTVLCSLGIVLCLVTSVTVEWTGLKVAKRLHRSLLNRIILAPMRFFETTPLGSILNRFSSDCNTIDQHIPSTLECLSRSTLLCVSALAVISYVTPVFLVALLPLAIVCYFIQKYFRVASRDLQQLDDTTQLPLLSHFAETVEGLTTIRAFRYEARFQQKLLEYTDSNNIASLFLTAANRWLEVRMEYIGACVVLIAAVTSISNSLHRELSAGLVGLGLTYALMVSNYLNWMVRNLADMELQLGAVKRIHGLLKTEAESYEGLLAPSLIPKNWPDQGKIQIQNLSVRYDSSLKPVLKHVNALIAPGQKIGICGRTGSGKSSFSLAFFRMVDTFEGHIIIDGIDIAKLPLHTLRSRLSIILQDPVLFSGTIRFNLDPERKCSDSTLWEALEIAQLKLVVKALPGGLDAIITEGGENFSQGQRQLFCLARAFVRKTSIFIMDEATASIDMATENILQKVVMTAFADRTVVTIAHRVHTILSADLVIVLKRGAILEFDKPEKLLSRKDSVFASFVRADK
T2 sequence (Q14654 whole entry, stated change not applied): as the sequence (Q14654 whole entry G334D partner) above, with D334G counted along it

Nc1ncnc2c1ncn2[C@@H]1O[C@H](COP(=O)([O-])OP(=O)([O-])O)[C@@H](O)[C@H]1O.[Mg+2] [MgADP]
EC50 (SUR1/Kir6.2-G334D [1]): 7.7 µM
ANAP fluorescence intensity relative to the original peak [2]: 101 ± 2%
increase of current over nucleotide-free control (3xFLAG_SUR1/Kir6.2): 3.6 fold
effect on currents (SUR1-Y1353*/Kir6.2-G334D): no activation
shift of concentration dependence of activation to higher concentrations by K2A mutation [3]: > 20 fold
effect on currents (SUR1/Kir6.2-G334D [4]): activated
EC50 (SUR1-T1397*/Kir6.2-G334D; Equation 5 fit to combined data): 38.6 µM
EC50 (SUR1-T1397*/Kir6.2-G334D; mean ± SEM of fits of equation 5 to individual experiments): 44.4 ± 14.5 µM
